Format in all cases: in vivo
Series [1] has as its system ICR mouse. Kind of series: Evaluation of hepatotoxicity in mouse (plasma AST). The settings on record: oral 500 mg/kg, plasma on the day after administration. As for the experimental part:
Compound (I) was suspended in 0.5% methylcellulose (Wako Pure Chemical Industries, Ltd.) to prepare a 50 mg/mL solution to be administered. To each ICR mouse (male, 7-week old, Charles River Laboratories Japan, Inc.), each compound was orally administered at a dose of 500 mg/kg. On the day after the administration, blood was collected from the posterior vena cava, and the obtained blood was centrifuged to collect blood plasma. AST (aspartate aminotransferase) value, which is a marker of hepatic disorders in blood plasma, was measured with a biochemistry automatic analyzer (Hitachi 7070, Hitachi, Ltd.). Comparative Compound 4 was suspended in 0.5% sodium carboxymethylcellulose (Wako Pure Chemical Industries, Ltd.) before use.

The test system of series [2] is colonic disorders in TNBS-induced colitis model. Kind of series: Colonic disorders in TNBS-induced colitis model. Conditions: Wistar rat, oral 3 mg/kg once on TNBS day then twice a day for 4 days, colon 5 days after TNBS. The source says: The action of Compound (I) on colonic disorders in inflammatory bowel disease models was studied. As the inflammatory bowel disease models, models partially modified from a TNBS-induced colitis model and a DSS-induced chronic colitis model described in documents (Gastroenterology, 1989, Vol. 96, pp. 29-36 and Am. J. Physiol. Gastrointest. Liver Physiol., 2004, Vol. 287, pp. G115-124) were used.
To each Slc:Wistar rat (male, 12-week old, Japan SLC, Inc.), TNBS (Wako Pure Chemical Industries, Ltd.) dissolved in ethanol was rectally administered under anesthesia, and the TNBS solution was held in the rectum for 1 hour to produce the colitis model. These rats had been fasted from 2 days before the TNBS administration to the day of the TNBS administration. Five days after the TNBS administration, the colon was isolated from the each rat, and the macroscopic damage score (which is a total of adhesion score, diarrhea score and ulcer score) was recorded as an index of damage in the colon. The macroscopic damage score was calculated based on the scores of Dubigeon et al. (Eur. J. Pharmacol., 2001, Vol. 431, pp. 103-110) and the scores of Venkova et al. (J. Pharmacol. Exp. Ther., 2004, Vol. 308, pp. 206-213). […]

Series [3] concerns hyperalgesia in Bennett model. As to the kind of experiment: Hyperalgesia in neuropathic pain model (Bennett model), plantar test. Conditions: SD rat, Bennett model day 14, oral 100 mg/kg, 90 minutes after administration; FIG. 2. The source says:
(§1) The action of Compound (I) on hyperalgesia in pain models was studied. As the pain models, models partially modified from an inflammatory pain model (a carrageenin paw edema pain model) and neuropathic pain models (Bennett model and Chung model) described in documents (Anesth. Analg., 2009, Vol. 108, pp. 1680-1687; Pain, 1988, Vol. 33, pp. 87-107; and Pain, 1992, Vol. 50, pp. 355-363) were used.
The Bennett model was produced by lightly ligating the sciatic nerve in the left thigh of each Crl:CD (SD) rat (male, 6-week old, Charles River Laboratories Japan, Inc.) at 4 points with chromic catgut (4-0). Fourteen days after the Bennett model was produced, each test compound was orally administered, and plantar test was performed 90 minutes after the administration. The plantar test was carried out by measuring the pain threshold (sec) of the left footpad (model foot) using a plantar thermal stimulation device (Plantar test 7370, Ugo Basile) wherein the thermal stimulus intensity was set to 60. Each test compound was suspended in 0.5 w/v % methylcellulose (Wako Pure Chemical Industries, Ltd.) and the obtained solution was orally administered. Compound 46b described in the Examples was administered at a dose of 100 mg/kg, and gabapentin (Toronto Research Chemicals), which is an anticonvulsant, was administered as a comparative control agent at a dose of 100 mg/kg.

Series [4] can be described thus: Pharmacokinetic evaluation in mouse (oral). The settings on record: male; BALB/c mouse, oral 0.8 mg/kg, plasma. The procedure:
Each test compound was dissolved in 10% HP-β-CD (Nihon Shokuhin Kako Co., Ltd.) to prepare a solution to be administered (0.08 mg/mL, as a solution to be administered for oral administration). To each BALB/c mouse (male, 7-week old, Charles River Laboratories Japan, Inc.), each compound was orally administered at a dose of 0.8 mg/kg. Blood was collected from the jugular vein or heart with time up to 24 hours after the administration. The obtained blood was centrifuged to collect blood plasma. The blood plasma was pretreated by methanol extraction method, and the concentration of the compound was analyzed by LC/MS/MS (ESI positive mode).
In this table, Cmax represents a maximum plasma concentration; and AUC0-∞ represents an area under the curve of the plasma concentration of the compound from after the compound administration to infinite time.

Series [5] deals with hyperalgesia in Chung model. As to the kind of experiment: Hyperalgesia in neuropathic pain model (Chung model), von Frey test. The settings on record: SD rat, Chung model day 7, oral 100 mg/kg, 90 minutes after administration.
Text: as §1
The Chung model was produced by completely ligating the L5 and L6 spinal nerves of each Crl:CD (SD) rat (male, 6-week old, Charles River Laboratories Japan, Inc.) with a silk suture (5-0). Seven days after the Chung model was produced, each test compound was orally administered, and von Frey test was performed 90 minutes after the administration. In addition, fifteen days after the Chung model was produced, each test compound was orally administered, and plantar test was performed 90 minutes after the administration. The von Frey test was carried out by measuring the pain threshold (g) of the left footpad (model foot) using Dynamic Plantar Aesthesiometer (37400, Ugo Basile) wherein the maximum pressure was set to 30.0 g and the time required to reach the maximum pressure was set to 40 seconds. The plantar test was carried out by the method described above. […]

Broadly, the AUC(0-inf) is total exposure, with the tail of the curve extrapolated. Low readings indicate low exposure, high ones high exposure. A word on the Cmax: it is the peak of the concentration-time curve. With `COc1c(NC(=O)N[C@@H]2Cc3ccccc3[C@@H]2O)cc(C(C)(C)C)cc1[C@@H](O)C(F)(F)F` [Compound 46b, 1-(5-tert-butyl-2-methoxy-3-((R)-2,2,2-trifluoro-1-hydroxyethyl)phenyl)-3-((1S,2R)-1-hydroxy-2,3-dihydro-1H-indene-2-yl)urea], the AST value in series [1] was determined as 47 U/L. Further, the macroscopic damage score in series [2] is reported as 3.3±0.7. The “pain threshold (sec), plantar test, compared to solvent-administered group” value in series [3] was “significantly elevated”. In series [4], this compound came in with an AUC(0-inf) of 588 ng·h/mL and a Cmax of 561 ng/mL. Further, the “pain threshold, von Frey test” value in series [5] came out at 7.0 ± 0.3 g.

Values taken from patent publication US8653304B2, “2,3-dihydro-1H-indene-2-yl urea derivative and pharmaceutical application of same” (Toray Industries, Inc., priority 2009, dated 2014).
